The structures appear in SMILES notation.

In test [1] the test system is K562. Briefly: Cytotoxicity was determined against K562 (chronic human myeloid leukemia )cells. Format: functional, cell-based.
Test [2] concerns LS174T. The test can be described thus: Cytotoxicity against LS174T (human colon carcinoma )cells. Format: functional, cell-based.

For the compound `COC(=O)c1[nH]c2c(O)cc(NC(=O)c3cc4cc(NC(=O)c5cc6ccccc6o5)ccc4[nH]3)c(CCCl)c2c1C(=O)OC`, the results for the IC50 in test [1] and in test [2] were 25 nM and 4 nM, respectively.

Take `COC(=O)c1[nH]c2c(O)cc(NC(=O)c3cc4cc(OC)c(OC)c(OC)c4[nH]3)c(CCCl)c2c1C(=O)OC`: the IC50 was 25 nM in test [1] and 4 nM in test [2].

Turning to `COc1cc2cc(C(=O)Nc3cc(O)ccc3CCCl)[nH]c2c(OC)c1OC`, the IC50 came to 1470 nM in test [1] and 13800 nM in test [2].

As a reminder, the IC50 is the concentration that inhibits the measured activity by half.

Values taken from ChEMBL document CHEMBL1145215, “Design, synthesis, and biological evaluation of achiral analogs of duocarmycin SA” (Bioorg Med Chem Lett, 2005).
